# Measurements: patent publication US20240228488A1 (TAKEDA PHARMACEUTICAL COMPANY LIMITED, priority 2021, published 2024)
# pEC50: −log10 of the molar value.
# Experiments:
# [1] = target: human activated kallikrein enzyme (Homo sapiens, UniProt P03952); test: Plasma kallikrein inhibition, fluorogenic PFR-AMC substrate, 500 pM activated kallikrein format; type: biochemical; settings: 500 pM activated kallikrein, 300 uM PFR-AMC, 30 min preincubation, 10 min reaction; read-out: Primary Dose Response Assay: Average EC50
# Summary of the method: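 Fluorescence (ex 380/em 460 nm) is read after 10 min of 300 uM PFR-AMC turnover by 500 pM enzyme at RT. Compounds sit with enzyme for 30 min beforehand. Buffer is Tris (pH 7.5) with EDTA, NaCl, PEG-400 and Triton X-100; EC50 values are banded.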
# plasma kallikrein = target: T1, plasma kallikrein (Homo sapiens, UniProt P03952); test: Neat human plasma assay, FXIIa contact pathway-activated, PFR-AMC substrate; type: biochemical; settings: citrated human plasma 78% final, 10 nM human FXIIa, 100 μM PFR-AMC; read-out: Human Plasma Assay: IC90
# T1 construct: from tissue
# Summary of the method: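 Compound inhibition of plasma kallikrein measured as PFR-AMC (100 μM) cleavage rate over 5 min at room temperature in 78% citrated human plasma activated with 10 nM FXIIa (Tris pH 7.5 buffer). IC50/IC90 from 4-parameter fit of rate versus inhibitor concentration.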
# human activated kallikrein enzyme, sequence (P03952 391-638 limits assumed): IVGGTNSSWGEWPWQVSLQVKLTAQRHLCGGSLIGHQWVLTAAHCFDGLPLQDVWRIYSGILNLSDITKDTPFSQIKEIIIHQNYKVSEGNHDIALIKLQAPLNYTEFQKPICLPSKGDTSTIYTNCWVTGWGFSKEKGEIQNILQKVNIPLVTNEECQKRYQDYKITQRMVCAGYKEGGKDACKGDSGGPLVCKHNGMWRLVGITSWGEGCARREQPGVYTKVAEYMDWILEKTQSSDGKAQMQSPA
# human activated kallikrein enzyme, sequence (P03952 20-390 partner limits assumed): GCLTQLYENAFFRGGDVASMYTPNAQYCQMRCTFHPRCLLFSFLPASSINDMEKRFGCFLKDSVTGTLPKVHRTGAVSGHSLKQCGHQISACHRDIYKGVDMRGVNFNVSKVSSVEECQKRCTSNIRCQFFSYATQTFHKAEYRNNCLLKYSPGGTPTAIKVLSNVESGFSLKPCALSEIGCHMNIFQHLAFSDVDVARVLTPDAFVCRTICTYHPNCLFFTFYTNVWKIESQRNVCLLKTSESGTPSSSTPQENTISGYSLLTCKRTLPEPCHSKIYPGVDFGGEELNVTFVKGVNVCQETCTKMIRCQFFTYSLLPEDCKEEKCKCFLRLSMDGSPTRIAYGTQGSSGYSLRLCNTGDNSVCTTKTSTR
# T1 sequence (P03952 391-638 limits assumed): as the sequence (P03952 391-638 limits assumed) above
# T1 sequence (P03952 20-390 partner limits assumed): as the sequence (P03952 20-390 partner limits assumed) above
Compound,pEC50 [1],IC90 (plasma kallikrein) [nM]
"O=C(Nc1cc(NCc2cn3cc(C4CC4)cc(N4CCOC4=O)c3n2)ncn1)[C@H]1C[C@@H]1c1cccc(Cl)c1 [Example I-174, (1S,2S)-2-(3-chlorophenyl)-N-(6-(((6-cyclopropyl-8-(2-oxooxazolidin-3-yl)imidazo[1,2-a]pyridin-2-yl)methyl)amino)pyrimidin-4-yl)cyclopropane-1-carboxamide]",> 9.00,1500 to 10000
"Cc1ccnc([C@H]2C[C@@H]2C(=O)Nc2cc(N[C@H](C)c3cn4cc(C5CC5)cc(N5C[C@@H]6C[C@@H]6C5=O)c4n3)ncn2)n1 (racemic) [Example 443, (1S,2S)—N-(6-(((R)-1-(6-cyclopropyl-8-((1R*,5S*)-2-oxo-3-azabicyclo[3.1.0]hexan-3-yl)imidazo[1,2-a]pyridin-2-yl)ethyl)amino)pyrimidin-4-yl)-2-(4-methylpyrimidin-2-yl)cyclopropane-1-carboxamide]",> 9.00,< 400
"Cc1ccnc([C@H]2C[C@@H]2C(=O)Nc2cc(N[C@H](C)c3cn4cc(C5(F)CC5)cc(N5CC(=O)N(C)C5=O)c4n3)ncn2)n1 [Example 424, (1S,2S)-N-(6-(((R)-1-(6-(1-fluorocyclopropyl)-8-(3-methyl-2,4-dioxoimidazolidin-1-yl)imidazo[1,2-a]pyridin-2-yl)ethyl)amino)pyrimidin-4-yl)-2-(4-methylpyrimidin-2-yl)cyclopropane-1-carboxamide]",> 9.00,400 to 1500
"N#Cc1ccc(Cl)cc1[C@H]1C[C@@H]1C(=O)Nc1cc(NCc2cn3cc(C4CC4)ccc3n2)ccn1 (racemic) [Example 82, rac-(1S*,2S*)-2-(5-chloro-2-cyanophenyl)-N-(4-(((6-cyclopropylimidazo[1,2-a]pyridin-2-yl)methyl)amino)pyridin-2-yl)cyclopropane-1-carboxamide]",> 9.00,10000 to 48000
"O=C(Nc1cc(NCc2cn3cc(C4CC4)cc(CO)c3n2)ccn1)[C@H]1C[C@@H]1c1cccc(Cl)c1 [Example 99, (1S,2S)-2-(3-chlorophenyl)-N-(4-(((6-cyclopropyl-8-(hydroxymethyl)imidazo[1,2-a]pyridin-2-yl)methyl)amino)pyridin-2-yl)cyclopropane-1-carboxamide]",> 9.00,400 to 1500
"O=C(Nc1cc(NCc2cn3cc(C4CC4)cc(N4CCNCC4=O)c3n2)ncn1)[C@H]1C[C@@H]1c1cccc(Cl)c1 [Example I-647, (1S,2S)-2-(3-chlorophenyl)-N-(6-(((6-cyclopropyl-8-(2-oxopiperazin-1-yl)imidazo[1,2-a]pyridin-2-yl)methyl)amino)pyrimidin-4-yl)cyclopropane-1-carboxamide]",> 9.00,400 to 1500
"O=C(Nc1cc(NCc2cn3cc(C4CC4)cc(N4CCNC4=O)c3n2)ncn1)[C@H]1C[C@@H]1c1cc(Cl)ccn1 [Example 394, (1S,2S)-2-(4-chloropyridin-2-yl)-N-(6-(((6-cyclopropyl-8-(2-oxoimidazolidin-1-yl)imidazo[1,2-a]pyridin-2-yl)methyl)amino)pyrimidin-4-yl)cyclopropane-1-carboxamide]",> 9.00,400 to 1500
"CCOC(=O)CN1CCN(c2cc(C3CC3)cn3cc(CNc4ccnc(NC(=O)[C@H]5C[C@@H]5c5cccc(Cl)c5)c4)nc23)CC1 [Example 600, ethyl 2-(4-(2-(((2-((1S,2S)-2-(3-chlorophenyl)cyclopropane-1-carboxamido)pyridin-4-yl)amino)methyl)-6-cyclopropylimidazo[1,2-a]pyridin-8-yl)piperazin-1-yl)acetate]",> 9.00,> 48000
"CN1CCN(c2cc(C3CC3)cn3cc(CNc4cc(NC(=O)[C@H]5C[C@@H]5c5cccc(Cl)c5)ccn4)nc23)CC1 [Example I-243, (1S,2S)-2-(3-chlorophenyl)-N-(2-(((6-cyclopropyl-8-(4-methylpiperazin-1-yl)imidazo[1,2-a]pyridin-2-yl)methyl)amino)pyridin-4-yl)cyclopropane-1-carboxamide]",> 9.00,400 to 1500
"COCc1nc(NC(=O)[C@H]2C[C@@H]2c2nccc(C)n2)cc(N(C)Cc2cn3cc(C4CC4)cc(N4CC(=O)N(C)C4=O)c3n2)n1 [Example 354, (1S,2S)-N-(6-(((6-cyclopropyl-8-(3-methyl-2,4-dioxoimidazolidin-1-yl)imidazo[1,2-a]pyridin-2-yl)methyl)(methyl)amino)-2-(methoxymethyl)pyrimidin-4-yl)-2-(4-methylpyrimidin-2-yl)cyclopropane-1-carboxamide]",> 9.00,< 400
"CN(c1cc(C2CC2)cn2cc(CNc3ccnc(NC(=O)[C@H]4C[C@@H]4c4cccc(Cl)c4)c3)nc12)S(C)(=O)=O [Example 128, (1S,2S)-2-(3-chlorophenyl)-N-(4-(((6-cyclopropyl-8-(N-methylmethylsulfonamido)imidazo[1,2-a]pyridin-2-yl)methyl)amino)pyridin-2-yl)cyclopropane-1-carboxamide]",> 9.00,400 to 1500
"CN1CCC(O)(c2cc(C3CC3)cn3cc(CNc4cc(NC(=O)[C@H]5C[C@@H]5c5cccc(Cl)c5)ncn4)nc23)CC1 [Example 401, (1S,2S)-2-(3-chlorophenyl)-N-(6-(((6-cyclopropyl-8-(4-hydroxy-1-methylpiperidin-4-yl)imidazo[1,2-a]pyridin-2-yl)methyl)amino)pyrimidin-4-yl)cyclopropane-1-carboxamide]",> 9.00,400 to 1500
"Cc1ccnc([C@H]2C[C@@H]2C(=O)Nc2nc(C)nc(NCc3cn4cc(C5CC5)cc(N5CC(=O)N(C)C5=O)c4n3)n2)n1 (racemic) [Example 525, rac-(1S*,2S*)-N-(4-(((6-cyclopropyl-8-(3-methyl-2,4-dioxoimidazolidin-1-yl)imidazo[1,2-a]pyridin-2-yl)methyl)amino)-6-methyl-1,3,5-triazin-2-yl)-2-(4-methylpyrimidin-2-yl)cyclopropane-1-carboxamide]",> 9.00,< 400
"Cc1ccnc([C@H]2C[C@@H]2C(=O)Nc2cc(NCc3cn4cc(C5CC5)cc(-n5c(=O)n(C)c(=O)n5C)c4n3)ncn2)n1 [Example 367, (1S,2S)-N-(6-(((6-cyclopropyl-8-(2,4-dimethyl-3,5-dioxo-1,2,4-triazolidin-1-yl)imidazo[1,2-a]pyridin-2-yl)methyl)amino)pyrimidin-4-yl)-2-(4-methylpyrimidin-2-yl)cyclopropane-1-carboxamide]",> 9.00,400 to 1500
"Cc1ccnc([C@H]2C[C@@H]2C(=O)Nc2cncc(NCc3cn4cc(C5CC5)cc(N5CC(=O)N(C)C5=O)c4n3)n2)n1 (racemic) [Example 526, rac-(1S*,2S*)-N-(6-(((6-cyclopropyl-8-(3-methyl-2,4-dioxoimidazolidin-1-yl)imidazo[1,2-a]pyridin-2-yl)methyl)amino)pyrazin-2-yl)-2-(4-methylpyrimidin-2-yl)cyclopropane-1-carboxamide]",> 9.00,400 to 1500
"O=C(Nc1cc(NCc2cn3cc(C4CC4)cc(N4CCOC4=O)c3n2)ccn1)[C@H]1C[C@@H]1c1cccc(Cl)c1 [Example I-238, (1S,2S)-2-(3-chlorophenyl)-N-(4-(((6-cyclopropyl-8-(2-oxooxazolidin-3-yl)imidazo[1,2-a]pyridin-2-yl)methyl)amino)pyridin-2-yl)cyclopropane-1-carboxamide]",> 9.00,< 400
"O=C(Nc1cc(NCc2cn3cc(C4CC4)ccc3n2)cnn1)[C@H]1C[C@@H]1c1cccc(Cl)c1 (racemic) [Example 101, rac-(1S*,2S*)-2-(3-chlorophenyl)-N-(5-(((6-cyclopropylimidazo[1,2-a]pyridin-2-yl)methyl)amino)pyridazin-3-yl)cyclopropane-1-carboxamide]",8.00 to 9.00,10000 to 48000
"O=C(Nc1cc(NCc2cn3cc(C4CC4)cc(N4CCNC4=O)c3n2)ncn1)[C@H]1C[C@@H]1c1cccc(Cl)c1 [Example 309, (1S,2S)-2-(3-chlorophenyl)-N-(6-(((6-cyclopropyl-8-(2-oxoimidazolidin-1-yl)imidazo[1,2-a]pyridin-2-yl)methyl)amino)pyrimidin-4-yl)cyclopropane-1-carboxamide]",> 9.00,1500 to 10000
"CC1(C)CN(c2cc(C3CC3)cn3cc(CNc4cc(NC(=O)[C@H]5C[C@@H]5c5cccc(Cl)c5)ncn4)nc23)C(=O)O1 [Example I-199, (1S,2S)-2-(3-chlorophenyl)-N-(6-(((6-cyclopropyl-8-(5,5-dimethyl-2-oxooxazolidin-3-yl)imidazo[1,2-a]pyridin-2-yl)methyl)amino)pyrimidin-4-yl)cyclopropane-1-carboxamide]",8.00 to 9.00,1500 to 10000
"CC(=O)c1cc(C2CC2)cn2cc(CNc3cc(NC(=O)[C@H]4C[C@@H]4c4cccc(Cl)c4)ncn3)nc12 [Example I-207, (1S,2S)-N-(6-(((8-acetyl-6-cyclopropylimidazo[1,2-a]pyridin-2-yl)methyl)amino)pyrimidin-4-yl)-2-(3-chlorophenyl)cyclopropane-1-carboxamide]",8.00 to 9.00,1500 to 10000
"O=C(Nc1cc(NCc2cn3cc(C4CC4)ccc3n2)ccn1)[C@H]1C[C@@H]1c1cc(Cl)ccc1-n1cnnn1 (racemic) [Example 287, rac-(1S*,2S*)-2-(5-chloro-2-(1H-tetrazol-1-yl)phenyl)-N-(4-(((6-cyclopropylimidazo[1,2-a]pyridin-2-yl)methyl)amino)pyridin-2-yl)cyclopropane-1-carboxamide]",> 9.00,10000 to 48000
